Laboratory results from patent US20060241108A1, “Substituted phenoxazines and acridones as inhibitors of AKT” (St. Jude Children's Research Hospital, priority 2005, published 2006).

Key:
[1] = test system: AKT; experiment: Inhibition of IGF-I stimulated AKT phosphorylation (Ser473) in Rh1 cells, Western blot; assay type: cell-based, human; conditions: for inhibition of AKT phosphorylation: 2.5 μM, Rh1 cells serum free, IGF-I; for Inhibition (phosphorylation of AKT at Ser 473): 5 μM, 1 hour, serum starved Rh1 cells, IGF-I 10 ng/ml 10 minutes, average of two experiments
Method: Cell lines and growth conditions. The human cell lines Rh1, Rh18, and Rh30 (ATCC Deposit # CRL 2061) have been described, e.g., by Hazelton et al. Cancer Res 1987;47:4501-4507 and Hosoi et al. Cancer Res. 1999;59:886-894. Rh1, Rh18 and Rh30 cells can each be grown in antibiotic free RPMI-1640 medium (available from BioWhittaker, Walkersville, Md.), supplemented with 10% fetal bovine serum (available from HyClone Laboratories, Logan, Utah) and 2 mM L-glutamine (available from BioWhittaker, Walkersville, Md.) at 37° C. in an atmosphere of 5% CO2. For serum free experiments, cells can be cultured in modified N2E (MN2E) medium (DMEM/F-12, 1:1 mixture) (Sigma, St. Louis, Mo.) supplemented with 1 μg/ml human holo transferrin, 30 nM sodium selenite, 20 nM progesterone, 100 μM putrescine, 30 nM vitamin E phosphate, and 50 μM ethanolamine. Cells in MN2E medium containing 5 μg/ml bovine fibronectin (available from Sigma, St. Louis, Mo.) are preferably plated, and allowed to attach overnight at 37° C. in a humidified, 5% CO2 atmosphere.
(§1) Cellular screening for inhibitors. Rh1, Rh18 and Rh30 cells can each be seeded at a density of 4×10^6/10-cm plate in serum-free medium for overnight attachment. The cells can then be exposed to 0.1% DMSO or to a test compound (for example, a phenoxazine or acridone compound) for one hour, then stimulated with Insulin-like growth factor-I (IGF-I) (10 ng/ml) for 10 minutes.
(§2) Western blot analysis. Cells are rapidly washed with ice-cold phosphate-buffered saline (PBS), placed on ice, and lysed in mammalian protein extraction reagent (M-PER; available from Pierce, Rockford, Ill.) containing one Complete™ mini protease inhibitor tablet (available from Boehringer Mannheim, Mannheim, Germany), 1 mM phenylmethylsulfonyl fluoride, 1 mM Na3VO4 and 1 mM NaF. Cellular debris is pelleted by centrifugation at 17,500×g for 10 minutes at 4° C. The protein concentration of the supernatants is measured by the bicinchoninic acid assay (e.g., using the BCA™ Protein Assay Kit, Pierce, Rockford, Ill., catalog number 23225 or 23227) using bovine serum albumin as the standard.
For the analysis of AKT, ERK-1/2, mTOR, p70S6 kinase, ribosomal protein S6 (rpS6 or S6), and glycogen synthase kinase 3 (GSK-3), equivalent amounts of protein can be separated on a 12% SDS-polyacrylamide gel (available from BioRad, Hercules, Calif.) by electrophoresis and subsequently transferred to a nitrocellulose membrane (also available from BioRad). After a 1 hour incubation in 1×TBS containing 0.05% Tween 20 and 5% blocking reagent (skim milk) (available from Upstate Biotechnology, Lake Placid, N.Y.) at room temperature, the wet nitrocellulose membranes are incubated with appropriate antibodies (available from Cell Signaling Technology, Beverly, Mass.): rabbit polyclonal antiserum specific for the phosphorylated Ser473 or Thr308 of AKT (dilution 1:1000); rabbit polyclonal antiserum specific for phosphorylated Thr202/Tyr204 of ERK-1/2 (dilution 1:1000); rabbit polyclonal antiserum specific for phosphorylated Ser2448 or Ser2481 of mTOR (dilution 1:1000); rabbit polyclonal antiserum specific for phosphorylated Thr389 of p70S6 kinase (dilution 1:4000); rabbit polyclonal antiserum specific for phosphorylated Ser235/236 of rpS6 (dilution 1:1000); or rabbit polyclonal antiserum specific for phosphorylated Ser21/9 of GSK-3α/β (dilution 1:1000). Horseradish peroxidase-conjugated goat anti-rabbit IgG antibody (dilution 1:10,000) can be used as the secondary antibody. Immunoreactive protein can be visualized using Renaissance chemiluminescence reagent (available from Life Science Products Inc., Boston, Mass.).
For these assays, Rh1 cells are seeded in serum-free medium for overnight attachment. The serum starved Rh1 cells are then exposed to 1-5 μM of a compound in Table I for 1 hour before stimulating with IGF-I (10 ng/ml) for 10 minutes. […]

[2] = target: T1, recombinant, full length AKT1/PKBα (Homo sapiens, UniProt P31749); experiment: In vitro inhibition of recombinant AKT (GSK-3 fusion protein phosphorylation); assay type: biochemical; conditions: 5 μM, pre-incubated two hours on ice
T1 construct: active, recombinant, full length AKT1/PKBα protein; purchased Upstate Biotechnology, Lake Placid, N.Y
Method: In vitro inhibition of recombinant AKT. In vitro kinase assays can be performed using an active, recombinant, full length AKT1/PKBα protein (available from Upstate Biotechnology, Lake Placid, N.Y.) or with an active, recombinant AKT1/PKBα protein, referred to herein as AKT1ΔPH, that lacks the pleckstrin homology domain (also available from Upstate Biotechnology). 10 ng of the recombinant enzyme in 25 μl 1× kinase buffer (25 mM Tris, pH 7.5; 5 mM β-glycerol phosphate; 2 mM dithiothreitol; 0.1 mM Na3VO4; and 10 mM MgCl2) is mixed with 2.5 μl of DMSO and a test compound (5 μM). […] After incubating the suspensions at 30° C. for 30 minutes, the reaction can be terminated by the addition of 3×SDS sample buffer (187.5 mM Tris-HCl, pH 6.8; 6% SDS; 30% glycerol; 150 mM dithiothreitol; and 0.03% bromophenol blue). The samples are then boiled for five minutes. The proteins can be separated on a 12% SDS polyacrylamide gel, and subsequently transferred to a nitrocellulose membrane. The membranes are preferably incubated with rabbit polyclonal anti-phospho-GSK-3α/β (Ser21/9) antibody (available from Cell Signaling Technology, Beverly, Mass., catalog # 9331).
The phosphorylation status of GSK-3 protein can also be used to study the AKT inhibitory activity of phenoxazines (including the phenoxazine compounds listed in Table I above) and acridone compounds. […]

[3] = test system: mTOR (Ser2448 and Ser2481), rpS6 (Ser235/236) and p70S6 kinase (Thr389); experiment: IGF-I induced phosphorylation of AKT downstream targets in Rh1 cells, Western blot; assay type: cell-based, human; conditions: 3.5 to 5.0 μM, 1 hour, Rh1 cells serum-free, IGF-I 10 minutes
Method: as §1, §2
For the analysis of AKT, ERK-1/2, mTOR, p70S6 kinase, ribosomal protein S6 (rpS6 or S6), and glycogen synthase kinase 3 (GSK-3), equivalent amounts of protein can be separated on a 12% SDS-polyacrylamide gel (available from BioRad, Hercules, Calif.) by electrophoresis and subsequently transferred to a nitrocellulose membrane (also available from BioRad). […]

T1 sequence (P31749 whole entry, the tested form may be a part): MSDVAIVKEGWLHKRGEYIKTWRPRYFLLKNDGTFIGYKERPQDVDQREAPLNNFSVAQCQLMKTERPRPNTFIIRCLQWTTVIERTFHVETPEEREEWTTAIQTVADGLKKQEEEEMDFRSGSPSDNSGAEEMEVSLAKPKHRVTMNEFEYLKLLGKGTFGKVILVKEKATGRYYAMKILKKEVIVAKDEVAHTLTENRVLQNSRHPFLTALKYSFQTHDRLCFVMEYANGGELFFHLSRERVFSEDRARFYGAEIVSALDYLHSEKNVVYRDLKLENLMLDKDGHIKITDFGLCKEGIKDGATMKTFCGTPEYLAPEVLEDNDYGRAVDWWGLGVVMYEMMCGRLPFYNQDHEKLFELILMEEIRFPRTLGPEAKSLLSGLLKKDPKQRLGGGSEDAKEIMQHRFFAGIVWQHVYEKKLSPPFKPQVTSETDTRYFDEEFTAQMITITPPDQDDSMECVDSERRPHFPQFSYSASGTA

| Molecule | inhibition of AKT phosphorylation [1] | Inhibition (phosphorylation of AKT at Ser 473) [1] | inhibition of GSK-3 phosphorylation by recombinant AKT [2] | inhibition of IGF-I induced phosphorylation of mTOR, rpS6 and p70S6 kinase [3] |
| --- | --- | --- | --- | --- |
| CCN(CC)CCCCN1c2ccccc2Oc2ccc(Cl)cc21 [Compound 10B, 10-[4′-(N-diethylamino)butyl]-2-chlorophenoxazine] | complete inhibition | ++++ (++++ ≈ 100% inhibition) | at least nearly complete | markedly inhibited |
| 10-[4′-[(β-hydroxyethyl)piperazino]butyl]-2-chlorophenoxazine [Compound 15B] | complete inhibition | ++++ (++++ ≈ 100% inhibition) | completely blocked | markedly inhibited |
